In US20240342238A1, “PEPTIDE HAVING OBESITY AND MUSCLE LOSS INHIBITORY ACTIVITIES, AND USE THEREOF” (Korea University Research and Business Foundation, priority 2021, published 2024):

Experiments:
S6 = S6 phosphorylation in L6 skeletal muscle cells (Western blot); format: cell-based; conditions: 100 nM, 1 hour; for phosphorylation of S6 (in words): FIG. 9
Procedure: (§1) The effect of the peptide of the present invention on muscles was confirmed. After culturing L6 skeletal muscle cells in a 6-well plate, the cells were starved with 0.5% FBS. Afterward, 100 nM of each peptide was treated for 1 hour, and proteins were collected and subjected to Western blot.

[1] = system: adipocyte protein 2 (AP2); assay: AP2 gene expression in muscle tissue of db/db mouse model (RT-PCR); format: in vivo; conditions: muscle tissue of db/db mice, 2.5 mg/kg i.p. daily, 8 weeks
Procedure: (§2) The obesity-improving effect of a peptide was confirmed by inducing body weight gain in an animal model in which diabetes was induced due to the defect in a leptin receptor. Specifically, C57BLKS/J-db/db 5-week-old male mice were purchased from the Central Laboratory Animal Inc., provided with a normal diet for one week, and used after an acclimation period. The breeding environment was maintained at 18 to 24° C. and a humidity of 50 to 60%, and during the acclimation period and the experimental period, free feeding was implemented with free access to normal feed and water.
(§3) The mice that underwent the acclimation period were divided into a control and a peptide-treated group. The control group was administered PBS, and the peptide-treated group was administered Peptide No. 7 or 8 (2.5 mg/kg) intraperitoneally every day for a total of 8 weeks.
(§4) As a result of RT-PCR, it was confirmed that, by the treatment of Peptide No. 7 or 8, the expression of adipocyte protein 2 (AP2) and CCAAT enhancer binding protein α (C/EBPα) genes, which are involved in lipid accumulation, was reduced, and the expression of a peroxisome proliferator-activated receptor α (PPARα) gene, involved in fatty acid oxidation, was increased. […]

[2] = system: peroxisome proliferator-activated receptor α (PPARα); assay: PPARα gene expression in muscle tissue of db/db mouse model (RT-PCR); format: in vivo; conditions: muscle tissue of db/db mice, 2.5 mg/kg i.p. daily, 8 weeks
Procedure: as §2, §3, §4

[3] = system: CCAAT enhancer binding protein α (C/EBPα); assay: C/EBPα gene expression in muscle tissue of db/db mouse model (RT-PCR); format: in vivo; conditions: muscle tissue of db/db mice, 2.5 mg/kg i.p. daily, 8 weeks
Procedure: as §2, §3, §4

[4] = system: Muscle RING Finger-1 (Murf-1); assay: Murf-1 gene expression in muscle tissue of db/db mouse model (RT-PCR); format: in vivo; conditions: muscle tissue of db/db mice, 2.5 mg/kg i.p. daily, 8 weeks
Procedure: as §2, §3, §4

FoxO1 = FoxO1 phosphorylation and total FoxO1 in L6 skeletal muscle cells (Western blot); format: cell-based; conditions: 100 nM, 1 hour
Procedure: as §1

Question: How did the “phosphorylation of S6 (in words)” value (S6) turn out when “AGSIREAGGAFGKREQAEEERYFR (listed as Homo sapiens) [No. 7]” was run?
Answer: Its value is “increased”.

Question: What about the “change in AP2 gene expression” value [1] of the same substance?
Answer: Its value is −52.5%.

Question: And the “change in PPARα gene expression” value [2]?
Answer: The value was “+94.1%”.

Question: What about the “change in C/EBPα gene expression” value [3] of the same substance?
Answer: Its value is −18.6%.

Question: What about the “change in Murf-1 gene expression” value [4] of the same substance?
Answer: Its value is −90.1%.

Question: Which “increase of phosphorylation of the S6 protein” value (shortened to “increase”) (S6) does the source give for “AQSREQLAALKK (listed as Homo sapiens) [No. 5]” here?
Answer: Its value is 494%.

Question: “EQAEEER (listed as Homo sapiens) [No. 2]” was tested. Which “increase” value (S6) did it give?
Answer: Its value is 365%.

Question: How did the “increase” value (S6) turn out when “EQAEEERYFR (listed as Homo sapiens) [No. 4]” was run?
Answer: Its value is 224%.

Question: For “REAGGAFGKR (listed as Homo sapiens) [No. 3]”, which “phosphorylation of S6 (in words)” value (S6) is on record?
Answer: Its value is “increased”.

Question: “VDRGAGSIREAGGAFGKREQAEEERYFR (listed as Homo sapiens) [No. 8]” was tested. Which “increase” value (S6) did it give?
Answer: The value was 414%.

Question: And the “change in AP2 gene expression” value [1]?
Answer: The value was −54.7%.

Question: And the “change in PPARα gene expression” value [2]?
Answer: The value was “+12.9%”.

Question: What about the “change in C/EBPα gene expression” value [3] of the same substance?
Answer: The value was −45.5%.

Question: What about the “change in Murf-1 gene expression” value [4] of the same substance?
Answer: Its value is −36.0%.

Question: Which “increase” value (S6) does the source give for YFR (listed as Homo sapiens) [No. 1] here?
Answer: Its value is 188%.

Question: What about the “expression level of total FoxO1” value (FoxO1) of the same substance?
Answer: Its value is “decreased”.

Question: What about the “phosphorylation of FoxO1” value (FoxO1) of the same substance?
Answer: Its value is “increased”.

Question: For “YFRAQSREQLAALKKHH (listed as Homo sapiens) [No. 6]”, which “phosphorylation of S6 (in words)” value (S6) is on record?
Answer: The value was “increased”.
